Test results published in the supplement of paper PMC10307832.

Assays:
Assay in all cases: relative viability (nuclei count vs DMSO), 5 days (fraction); higher = more cells survive
Tosedostat + Decitabine = compound: CC(C)C[C@@H](C(=O)N[C@H](C(=O)OC1CCCC1)c1ccccc1)[C@H](O)C(=O)NO [Tosedostat] + Nc1ncn([C@H]2C[C@H](O)[C@@H](CO)O2)c(=O)n1 [Decitabine] (partner 2 µM)
Outline: (§1)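 Values are medians from duplicate plates. Each reflects relative viability, defined as the nuclei count of treated wells over that of vehicle wells. Lung cancer cell lines in 1536-well plates were pin-tool dosed one day after seeding with one drug alone or with a fixed anchor-drug dose plus five library-drug doses (not always all listed) in √10 steps, then fixed, stained and imaged at 4× after 5 days.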

Tosedostat + Vorinostat = compound: CC(C)C[C@@H](C(=O)N[C@H](C(=O)OC1CCCC1)c1ccccc1)[C@H](O)C(=O)NO [Tosedostat] + O=C(CCCCCCC(=O)Nc1ccccc1)NO [Vorinostat] (partner 1 µM)
Outline: as §1

[1] = compound: CC1=NN=C(O1)C2=NN=C(C=C2)N3CCC(CC3)OC4=C(C=CC(=C4)F)Cl + CS(=O)(=O)CCNCc1ccc(-c2ccc3ncnc(Nc4ccc(OCc5cccc(F)c5)c(Cl)c4)c3c2)o1 [Lapatinib] (partner 2 µM)
Outline: as §1

[2] = compound: CC1=NN=C(O1)C2=NN=C(C=C2)N3CCC(CC3)OC4=C(C=CC(=C4)F)Cl + Cc1nc(NC(=O)N2CCC[C@H]2C(N)=O)sc1-c1ccnc(C(C)(C)C(F)(F)F)c1 [Alpelisib] (partner 2 µM)
Outline: as §1

NCI-H23 gave a relative viability (Tosedostat + Decitabine; first compound 0.02 µM) of 0.309, a relative viability (Tosedostat + Decitabine; first compound 0.06325 µM) of 0.315 and a relative viability (Tosedostat + Decitabine; first compound 0.2 µM) of 0.323. For the same cell line, the relative viability (Tosedostat + Decitabine; first compound 0.6325 µM) was 0.286, the relative viability (Tosedostat + Decitabine; first compound 2 µM) was 0.306 and the relative viability (Tosedostat + Vorinostat; first compound 0.02 µM) was 0.646. For the same cell line, the relative viability (Tosedostat + Vorinostat; first compound 0.06325 µM) was 0.52, the relative viability (Tosedostat + Vorinostat; first compound 0.2 µM) was 0.707 and the relative viability (Tosedostat + Vorinostat; first compound 0.6325 µM) was 0.502. The relative viability (Tosedostat + Vorinostat; first compound 2 µM) was 0.51, the relative viability ([1]; first compound 0.253 µM) was 1.03 and the relative viability ([1]; first compound 2.53 µM) was 0.955. The relative viability ([1]; first compound 8 µM) was 0.876, the relative viability ([2]; first compound 0.253 µM) was 0.635 and the relative viability ([2]; first compound 2.53 µM) was 0.663. For the same cell line, the relative viability ([2]; first compound 8 µM) was 0.822.

NCI-H322M showed a relative viability (Tosedostat + Decitabine; first compound 0.02 µM) of 0.69, a relative viability (Tosedostat + Decitabine; first compound 0.06325 µM) of 0.652 and a relative viability (Tosedostat + Decitabine; first compound 0.2 µM) of 0.587. It also gave a relative viability (Tosedostat + Decitabine; first compound 0.6325 µM) of 0.636, a relative viability (Tosedostat + Decitabine; first compound 2 µM) of 0.621 and a relative viability (Tosedostat + Vorinostat; first compound 0.02 µM) of 0.855. It also gave a relative viability (Tosedostat + Vorinostat; first compound 0.06325 µM) of 0.958, a relative viability (Tosedostat + Vorinostat; first compound 0.2 µM) of 0.887 and a relative viability (Tosedostat + Vorinostat; first compound 0.6325 µM) of 0.995. It also gave a relative viability (Tosedostat + Vorinostat; first compound 2 µM) of 0.802, a relative viability ([1]; first compound 0.253 µM) of 0.467 and a relative viability ([1]; first compound 0.8 µM) of 0.581. It also gave a relative viability ([1]; first compound 2.53 µM) of 0.592, a relative viability ([1]; first compound 8 µM) of 0.551 and a relative viability ([2]; first compound 0.253 µM) of 0.0721. The relative viability ([2]; first compound 0.8 µM) was 0.707, the relative viability ([2]; first compound 2.53 µM) was 0.7 and the relative viability ([2]; first compound 8 µM) was 0.747.

NCI-H441 showed a relative viability (Tosedostat + Decitabine; first compound 0.02 µM) of 0.226, a relative viability (Tosedostat + Decitabine; first compound 0.06325 µM) of 0.253 and a relative viability (Tosedostat + Decitabine; first compound 0.2 µM) of 0.239. The relative viability (Tosedostat + Decitabine; first compound 0.6325 µM) was 0.198, the relative viability (Tosedostat + Decitabine; first compound 2 µM) was 0.244 and the relative viability (Tosedostat + Vorinostat; first compound 0.02 µM) was 0.809. For the same cell line, the relative viability (Tosedostat + Vorinostat; first compound 0.06325 µM) was 0.654, the relative viability (Tosedostat + Vorinostat; first compound 0.2 µM) was 0.759 and the relative viability (Tosedostat + Vorinostat; first compound 0.6325 µM) was 0.55. For the same cell line, the relative viability (Tosedostat + Vorinostat; first compound 2 µM) was 0.547, the relative viability ([2]; first compound 0.253 µM) was 0.826 and the relative viability ([2]; first compound 0.8 µM) was 0.674. It also gave a relative viability ([2]; first compound 2.53 µM) of 0.542 and a relative viability ([2]; first compound 8 µM) of 0.532.

NCI-H522 showed a relative viability (Tosedostat + Decitabine; first compound 0.02 µM) of 0.594, a relative viability (Tosedostat + Decitabine; first compound 0.06325 µM) of 0.619 and a relative viability (Tosedostat + Decitabine; first compound 0.2 µM) of 0.639. For the same cell line, the relative viability (Tosedostat + Decitabine; first compound 0.6325 µM) was 0.578, the relative viability (Tosedostat + Decitabine; first compound 2 µM) was 0.72 and the relative viability (Tosedostat + Vorinostat; first compound 0.02 µM) was 1.12. The relative viability (Tosedostat + Vorinostat; first compound 0.06325 µM) was 0.897, the relative viability (Tosedostat + Vorinostat; first compound 0.2 µM) was 0.954 and the relative viability (Tosedostat + Vorinostat; first compound 0.6325 µM) was 0.918. The relative viability (Tosedostat + Vorinostat; first compound 2 µM) was 0.916.

Cell Line NCI-H1299 has a relative viability ([1]; first compound 0.253 µM) of 0.737, a relative viability ([1]; first compound 0.8 µM) of 0.718 and a relative viability ([1]; first compound 2.53 µM) of 0.752. The relative viability ([1]; first compound 8 µM) was 0.687, the relative viability ([2]; first compound 0.253 µM) was 0.939 and the relative viability ([2]; first compound 0.8 µM) was 0.877. The relative viability ([2]; first compound 2.53 µM) was 0.971 and the relative viability ([2]; first compound 8 µM) was 0.868.

With NCI-H1563 the relative viability ([1]; first compound 0.253 µM) was 0.804, the relative viability ([1]; first compound 0.8 µM) was 0.992 and the relative viability ([1]; first compound 2.53 µM) was 0.88. It also gave a relative viability ([1]; first compound 8 µM) of 0.82, a relative viability ([2]; first compound 0.253 µM) of 1 and a relative viability ([2]; first compound 0.8 µM) of 0.952. It also gave a relative viability ([2]; first compound 2.53 µM) of 0.999 and a relative viability ([2]; first compound 8 µM) of 1.09.

Cell Line NCI-H1648 has a relative viability (Tosedostat + Decitabine; first compound 0.02 µM) of 0.389, a relative viability (Tosedostat + Decitabine; first compound 0.06325 µM) of 0.426 and a relative viability (Tosedostat + Decitabine; first compound 0.2 µM) of 0.51. For the same cell line, the relative viability (Tosedostat + Decitabine; first compound 0.6325 µM) was 0.421, the relative viability (Tosedostat + Decitabine; first compound 2 µM) was 0.399 and the relative viability (Tosedostat + Vorinostat; first compound 0.02 µM) was 0.316. It also gave a relative viability (Tosedostat + Vorinostat; first compound 0.06325 µM) of 0.661, a relative viability (Tosedostat + Vorinostat; first compound 0.2 µM) of 0.553 and a relative viability (Tosedostat + Vorinostat; first compound 0.6325 µM) of 0.365. For the same cell line, the relative viability (Tosedostat + Vorinostat; first compound 2 µM) was 0.354.

With NCI-H1650 the relative viability (Tosedostat + Decitabine; first compound 0.02 µM) was 0.43, the relative viability (Tosedostat + Decitabine; first compound 0.06325 µM) was 0.413 and the relative viability (Tosedostat + Decitabine; first compound 0.2 µM) was 0.433. The relative viability (Tosedostat + Decitabine; first compound 0.6325 µM) was 0.318, the relative viability (Tosedostat + Decitabine; first compound 2 µM) was 0.237 and the relative viability (Tosedostat + Vorinostat; first compound 0.02 µM) was 0.51. It also gave a relative viability (Tosedostat + Vorinostat; first compound 0.06325 µM) of 0.641, a relative viability (Tosedostat + Vorinostat; first compound 0.2 µM) of 0.735 and a relative viability (Tosedostat + Vorinostat; first compound 0.6325 µM) of 0.841. The relative viability (Tosedostat + Vorinostat; first compound 2 µM) was 0.704, the relative viability ([1]; first compound 0.8 µM) was 0.71 and the relative viability ([1]; first compound 2.53 µM) was 0.691. For the same cell line, the relative viability ([1]; first compound 8 µM) was 0.566.

NCI-H1703 gave a relative viability ([1]; first compound 0.253 µM) of 1.06, a relative viability ([1]; first compound 0.8 µM) of 0.795 and a relative viability ([1]; first compound 2.53 µM) of 0.904. It also gave a relative viability ([1]; first compound 8 µM) of 0.76, a relative viability ([2]; first compound 0.253 µM) of 0.313 and a relative viability ([2]; first compound 0.8 µM) of 0.388. It also gave a relative viability ([2]; first compound 2.53 µM) of 0.337 and a relative viability ([2]; first compound 8 µM) of 0.395.

Cell Line NCI-H1792 has a relative viability (Tosedostat + Decitabine; first compound 0.02 µM) of 0.62, a relative viability (Tosedostat + Decitabine; first compound 0.06325 µM) of 0.506 and a relative viability (Tosedostat + Decitabine; first compound 0.2 µM) of 0.52. It also gave a relative viability (Tosedostat + Decitabine; first compound 0.6325 µM) of 0.465, a relative viability (Tosedostat + Decitabine; first compound 2 µM) of 0.525 and a relative viability ([1]; first compound 0.253 µM) of 0.417. The relative viability ([1]; first compound 0.8 µM) was 0.436, the relative viability ([1]; first compound 2.53 µM) was 0.404 and the relative viability ([1]; first compound 8 µM) was 0.502. The relative viability ([2]; first compound 0.253 µM) was 0.397, the relative viability ([2]; first compound 0.8 µM) was 0.432 and the relative viability ([2]; first compound 2.53 µM) was 0.264. It also gave a relative viability ([2]; first compound 8 µM) of 0.448.

In the case of NCI-H2228, the relative viability (Tosedostat + Vorinostat; first compound 0.02 µM) is reported as 0.615, the relative viability (Tosedostat + Vorinostat; first compound 0.06325 µM) is reported as 0.348 and the relative viability (Tosedostat + Vorinostat; first compound 0.2 µM) is reported as 0.548. It also gave a relative viability (Tosedostat + Vorinostat; first compound 0.6325 µM) of 0.25, a relative viability (Tosedostat + Vorinostat; first compound 2 µM) of 0.236 and a relative viability ([1]; first compound 0.253 µM) of 1.03. The relative viability ([1]; first compound 0.8 µM) was 1.01, the relative viability ([1]; first compound 2.53 µM) was 1.13 and the relative viability ([1]; first compound 8 µM) was 0.848. The relative viability ([2]; first compound 0.253 µM) was 0.684, the relative viability ([2]; first compound 0.8 µM) was 0.545 and the relative viability ([2]; first compound 2.53 µM) was 0.923. It also gave a relative viability ([2]; first compound 8 µM) of 0.479.

For NCI-H2342, the relative viability (Tosedostat + Decitabine; first compound 0.02 µM) was 0.713, the relative viability (Tosedostat + Decitabine; first compound 0.06325 µM) was 0.688 and the relative viability (Tosedostat + Decitabine; first compound 0.2 µM) was 0.718. For the same cell line, the relative viability (Tosedostat + Decitabine; first compound 0.6325 µM) was 0.692, the relative viability (Tosedostat + Decitabine; first compound 2 µM) was 0.689 and the relative viability (Tosedostat + Vorinostat; first compound 0.02 µM) was 0.851. It also gave a relative viability (Tosedostat + Vorinostat; first compound 0.06325 µM) of 0.79, a relative viability (Tosedostat + Vorinostat; first compound 0.2 µM) of 0.75 and a relative viability (Tosedostat + Vorinostat; first compound 0.6325 µM) of 0.702. For the same cell line, the relative viability (Tosedostat + Vorinostat; first compound 2 µM) was 0.843.

Cell Line SW 900 has a relative viability (Tosedostat + Decitabine; first compound 0.02 µM) of 0.463, a relative viability (Tosedostat + Decitabine; first compound 0.06325 µM) of 0.499 and a relative viability (Tosedostat + Decitabine; first compound 0.2 µM) of 0.405. It also gave a relative viability (Tosedostat + Decitabine; first compound 0.6325 µM) of 0.359, a relative viability (Tosedostat + Decitabine; first compound 2 µM) of 0.415 and a relative viability (Tosedostat + Vorinostat; first compound 0.02 µM) of 0.37. It also gave a relative viability (Tosedostat + Vorinostat; first compound 0.06325 µM) of 0.35, a relative viability (Tosedostat + Vorinostat; first compound 0.2 µM) of 0.488 and a relative viability (Tosedostat + Vorinostat; first compound 0.6325 µM) of 0.515. It also gave a relative viability (Tosedostat + Vorinostat; first compound 2 µM) of 0.568.
